# Like-named read-outs stand apart in the source and are kept apart here.
# How the values were obtained:
# [1] = target: T1, rabbit lung ACE (Oryctolagus cuniculus, UniProt P12822); conditions: vs rabbit lung ACE, cited from earlier work
# T1 construct: rabbit lung ACE; from tissue; host or cells: rabbit lung
# T1 sequence (P12822 34-1310): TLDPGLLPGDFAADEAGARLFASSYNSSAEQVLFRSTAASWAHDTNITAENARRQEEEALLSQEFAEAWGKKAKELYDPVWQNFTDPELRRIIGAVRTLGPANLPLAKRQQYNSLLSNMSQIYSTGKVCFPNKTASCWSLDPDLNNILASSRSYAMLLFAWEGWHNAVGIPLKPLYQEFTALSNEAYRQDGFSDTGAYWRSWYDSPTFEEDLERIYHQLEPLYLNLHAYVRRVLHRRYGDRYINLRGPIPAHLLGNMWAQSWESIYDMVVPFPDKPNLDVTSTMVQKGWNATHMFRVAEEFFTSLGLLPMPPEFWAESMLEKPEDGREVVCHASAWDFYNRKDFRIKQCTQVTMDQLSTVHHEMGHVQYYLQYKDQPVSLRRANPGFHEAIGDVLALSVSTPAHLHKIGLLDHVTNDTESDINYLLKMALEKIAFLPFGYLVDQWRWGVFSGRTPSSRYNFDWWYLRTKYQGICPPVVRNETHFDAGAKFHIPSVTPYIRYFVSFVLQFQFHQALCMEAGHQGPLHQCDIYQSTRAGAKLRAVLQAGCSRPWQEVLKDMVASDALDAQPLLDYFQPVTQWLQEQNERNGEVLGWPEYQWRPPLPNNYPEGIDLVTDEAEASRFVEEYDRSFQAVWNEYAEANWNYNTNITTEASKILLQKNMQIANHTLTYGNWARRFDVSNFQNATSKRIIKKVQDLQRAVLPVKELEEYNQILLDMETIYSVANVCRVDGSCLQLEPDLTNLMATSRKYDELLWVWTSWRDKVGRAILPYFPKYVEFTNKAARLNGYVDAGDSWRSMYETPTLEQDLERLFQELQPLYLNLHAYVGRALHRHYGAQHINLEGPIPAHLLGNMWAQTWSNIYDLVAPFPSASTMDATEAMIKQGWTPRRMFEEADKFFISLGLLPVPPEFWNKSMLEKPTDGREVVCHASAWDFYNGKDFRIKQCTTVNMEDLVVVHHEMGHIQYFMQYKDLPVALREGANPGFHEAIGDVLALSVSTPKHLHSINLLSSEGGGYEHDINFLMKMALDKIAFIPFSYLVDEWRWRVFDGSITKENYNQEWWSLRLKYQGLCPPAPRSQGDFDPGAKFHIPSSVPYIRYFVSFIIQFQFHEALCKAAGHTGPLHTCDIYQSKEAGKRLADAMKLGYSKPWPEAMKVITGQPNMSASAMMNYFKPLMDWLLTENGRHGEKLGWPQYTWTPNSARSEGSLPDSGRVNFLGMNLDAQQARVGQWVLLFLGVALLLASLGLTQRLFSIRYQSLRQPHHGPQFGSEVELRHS
# [2] = cited from earlier work; for Half life: in vivo; for Half life: short or long acting: in words
# [3] = test system: superficial IH; conditions: cited from earlier work
# [4] = test system: proliferating hemangioma cells; assay: Experiment 7: different ACEi and beta blockers on one primary cell line, MTT; type: cell-based, human; conditions: for inhibition of proliferating hemangioma cells: 1 μM and 10 μM; for Results Summary: 72 hours, one cell line; for inhibition at 1 µM / inhibition at 10 µM: Homo sapiens, 72 h, read-out: Inhibition vs. Cells + Adjuvant at 72 Hours
# Method: (§1) An in vitro cell culture model of infantile hemangioma was developed to assess the impact of renin-angiotensin system inhibitors on cellular proliferation. A primary cell line of proliferating infantile hemangioma cells, including haemangioma stem cells, was derived from a tissue biopsy obtained from patients during the proliferating phase of the disease. The primary cell lines are cultured in 25 cm^2 flasks using standard culture media and conditions. The cultured cells are used to seed 96-well plates with a seed cell concentration of 2500 or 5000 cells per well, with additional culture media (200 μL). All studies are performed in triplicate.
# The plates are incubated overnight to allow cell adherence to the wells. The wells are photographed to confirm cell adherence and confluency. The appropriate drug(s) to be examined are subsequently added to the wells. […] The media is aspirated from each well and stored frozen for possible future analyses. Media is added to the wells and an MTT determination is undertaken according to standard protocols.
# (§2) From the triplicate incubations of each drug concentration at each time, as well as for all controls, the mean±standard deviation is calculated. The net survival (optical density value) is calculated by subtracting the appropriate blank mean value from each cell culture. From the MTT data, the percentage of survival of cells in the presence of each concentration of drug after each time of culturing is determined.
# Briefly, cells were seeded in 96-well plates at concentrations of 2500 cells/well in triplicate for each drug and drug combination. […] All plates were performed in triplicate. Beta blockers used in the study were (±)-propranolol, R-propranolol, S-propranolol, timolol, and betaxalol.
# [5] = cited from earlier work
# [6] = cited from earlier work; remark: listed apart in the source
# [7] = cited from earlier work; remark: listed apart in the source
# [8] = test system: flat or minimally raised IH lesions; conditions: cited from earlier work
# [9] = test system: proliferating hemangioma cells; assay: Example 5: R- and S-beta blockers alone and with cilazapril, MTT; type: cell-based, human
# Method: An in vitro cell culture model of infantile hemangioma was developed to assess the impact of renin-angiotensin system inhibitors on cellular proliferation. A primary cell line of proliferating infantile hemangioma cells, including haemangioma stem cells, was derived from a tissue biopsy obtained from patients during the proliferating phase of the disease. The primary cell lines are cultured in 25 cm^2 flasks using standard culture media and conditions. The cultured cells are used to seed 96-well plates with a seed cell concentration of 2500 or 5000 cells per well, with additional culture media (200 μL). All studies are performed in triplicate. The plates are incubated overnight to allow cell adherence to the wells. The wells are photographed to confirm cell adherence and confluency. The appropriate drug(s) to be examined are subsequently added to the wells. After 24 hours, one set of plates (experimental and blank) is stopped. The media is aspirated from each well and stored frozen for possible future analyses. Media is added to the wells and an MTT determination is undertaken according to standard protocols. This is repeated at 48 and 72 hours. From the triplicate incubations of each drug concentration at each time, as well as for all controls, the mean±standard deviation is calculated. The net survival (optical density value) is calculated by subtracting the appropriate blank mean value from each cell culture. From the MTT data, the percentage of survival of cells in the presence of each concentration of drug after each time of culturing is determined. The experimental protocol was performed as per Example 1. Briefly, cells were seeded in 96-well plates at concentrations of 2500 cells/well in triplicate for each drug and drug combination. Drug(s) were added to each well 24 hours after seeding and re-dosed every 24 hours. Cell viability was assessed by MTT assay after 24, 48, and 72 hours. All plates were performed in triplicate. […] Timolol and propranolol were used as model beta blockers and cilazapril as a model ACE inhibitor.
# [10] = test system: proliferating hemangioma cell lines (n=9); assay: Example 6: single agents and combinations on nine primary cell lines, MTT, CompuSyn combination index; type: cell-based, human; conditions: 1 to 10 μM; 72 hours; n=9
# Method: as §1
# The plates are incubated overnight to allow cell adherence to the wells. The wells are photographed to confirm cell adherence and confluency. The appropriate drug(s) to be examined are subsequently added to the wells. After 24 hours, one set of plates (experimental and blank) is stopped. The media is aspirated from each well and stored frozen for possible future analyses. Media is added to the wells and an MTT determination is undertaken according to standard protocols. This is repeated at 48 and 72 hours.
# as §2
# A study was undertaken using combinations of ACE inhibitors, beta blockers and angiotensin II type 2 receptor blockers to inhibit proliferating hemangioma cells. […] Patient histories pertaining to each cell line is described in Table 5.
# The experimental protocol was performed as per Example 1. Briefly, cells were seeded in 96-well plates at concentrations of 2500 cells/well in triplicate for each drug and drug combination. Drug(s) were added to each well 24 hours after seeding and re-dosed every 24 hours. Cell viability was assessed by MTT assay after 24, 48, and 72 hours. All plates were performed in triplicate. Drugs were assessed alone and in combination, as described in Table 6. Propranolol was used as a model beta blocker, cilazapril as a model ACE inhibitor, and SMM02 (L-159686) as a model AT2Ri. Synergy was measured using the CompuSyn open-source software protocol for quantifying synergism and antagonism that uses the median-effect equation and mass-action laws to generate a combination index (www.compusyn.com). Synergism, additive effects and antagonism are defined as a CI<1, CI=1, and CI>1, respectively.
# [11] = Franz-diffusion cell permeation through skin-model membranes; conditions: 120 hours
# From the text: Firstly, a custom-built Franz-diffusion cell (FIG. 34 A) was constructed in-house, consisting of a donor and receiver chamber, and fitted with a water-jacket to enable the temperature to be controlled to mimic physiological conditions. […] This model system was used as a screening tool to increase the success of subsequent permeation studies performed on excised animal skin.
# The system was validated by investigating the permeation of a water-soluble fluorescent dye, carboxyfluorescein, which has poor skin penetration properties. […] As a comparison, carboxyfluorescein was encapsulated into deformable liposomes with a phospholipid membrane composition of soy phosphatidylcholine (Phospholipon® 90G) and polysorbate 80 in an 80:20 mol % ratio. […]
# The carboxyfluorescein emulgel (2 mL) was placed in the receiver chamber of the Franz-diffusion cell fitted with a Strat-M® membrane, and permeation of fluorescein across the membrane was monitored over time and quantified by fluoresce spectroscopy. […]
# The permeation of propranolol through skin-model membranes in vitro was assessed. A 2-mL volume of the appropriate vehicle (cream vs. emulsion gel) was placed in the donor chamber of the Franz-diffusion cell, and the concentration of propranolol in the receiver chamber was determined by UV-Vis spectroscopy at frequent time intervals over 60 hours.
# [12] = test system: proliferating IH; conditions: cited from earlier work
# [13] = test system: IH; conditions: oral; 30 patients with IH; cited from earlier work
# [14] = test system: proliferating IH; conditions: topical 1% ointments; cited from earlier work
# [15] = target: T2, brush border ACE (Homo sapiens, UniProt P12821); conditions: cited from earlier work
# T2 construct: brush border ACE; from tissue
# T2 sequence (P12821 30-1306): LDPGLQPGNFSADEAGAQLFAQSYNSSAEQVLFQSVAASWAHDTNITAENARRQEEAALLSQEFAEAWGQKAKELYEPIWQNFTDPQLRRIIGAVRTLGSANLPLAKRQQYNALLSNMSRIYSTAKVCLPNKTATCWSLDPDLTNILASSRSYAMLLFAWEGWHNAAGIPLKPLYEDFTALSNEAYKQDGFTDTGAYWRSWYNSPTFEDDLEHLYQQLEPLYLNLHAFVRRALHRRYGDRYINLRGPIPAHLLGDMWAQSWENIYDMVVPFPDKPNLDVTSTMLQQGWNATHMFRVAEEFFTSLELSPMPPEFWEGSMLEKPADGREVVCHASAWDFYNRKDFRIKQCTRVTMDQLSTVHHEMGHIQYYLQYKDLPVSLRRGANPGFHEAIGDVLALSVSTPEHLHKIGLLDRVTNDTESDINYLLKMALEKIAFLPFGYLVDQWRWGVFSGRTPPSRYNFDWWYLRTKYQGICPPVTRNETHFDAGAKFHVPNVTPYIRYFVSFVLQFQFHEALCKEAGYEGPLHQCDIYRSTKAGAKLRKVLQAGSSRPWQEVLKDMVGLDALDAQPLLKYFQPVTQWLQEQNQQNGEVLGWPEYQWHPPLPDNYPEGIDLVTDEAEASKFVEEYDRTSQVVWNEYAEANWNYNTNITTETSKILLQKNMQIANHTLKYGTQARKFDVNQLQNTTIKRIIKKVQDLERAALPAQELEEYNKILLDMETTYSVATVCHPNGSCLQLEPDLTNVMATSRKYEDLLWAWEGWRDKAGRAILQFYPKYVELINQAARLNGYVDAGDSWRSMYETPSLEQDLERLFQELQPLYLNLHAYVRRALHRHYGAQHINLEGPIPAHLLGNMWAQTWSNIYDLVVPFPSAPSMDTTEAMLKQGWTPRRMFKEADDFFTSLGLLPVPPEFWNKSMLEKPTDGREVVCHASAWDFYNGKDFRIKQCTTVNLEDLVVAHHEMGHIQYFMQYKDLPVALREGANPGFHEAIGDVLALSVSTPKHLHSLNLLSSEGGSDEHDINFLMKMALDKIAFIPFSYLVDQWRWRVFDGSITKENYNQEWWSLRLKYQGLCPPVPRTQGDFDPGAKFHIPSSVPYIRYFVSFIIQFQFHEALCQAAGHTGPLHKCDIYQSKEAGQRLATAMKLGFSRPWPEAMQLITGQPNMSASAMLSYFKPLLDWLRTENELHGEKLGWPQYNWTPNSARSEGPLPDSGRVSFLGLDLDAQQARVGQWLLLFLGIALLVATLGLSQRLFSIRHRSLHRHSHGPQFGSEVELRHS
compound,measurement,setting,value
O=C(O)[C@H](CCc1ccccc1)N[C@H]1CCCN2CCC[C@@H](C(=O)O)N2C1=O [cilazaprilat],IC50,[1],1.93 nM
same,Half life,[2],9 h (cilazaprilat)
"CC(C)Cn1cnc2c(N)nc3ccccc3c21 [imiquimod, Imiquimod]",time within which all cases are improved,[3]; 5% cream,≤ 4 months
same,side effects,[3]; topical,severe local inflammatory reactions leading to disfiguring scars
Lisinopril,Estimated Optimal Dosage Range,[4],1 to 10 µM
same,Inhibition vs. Cells + Adjuvant at 72 Hours,[4]; 1 μM,1 μM - <0%
same,inhibition of proliferating hemangioma cells,[4],no effect
same,Inhibition vs. Cells + Adjuvant at 72 Hours,[4]; 10 μM,10 μM -1.67%
same,Results Summary,[4],Non-
same,IC50,[1]; unit inferred,3.3 nM
same,Log P,[5]; Table 1,−1.01
same,log P,[5],−1.01
same,pKa,[6],3.2
same,pKa,[6]; second value,10.2
same,Solubility,[7],97 mg/mL
same,Half life,[2],12.6 h
same,Half life: short or long acting,[2],Long acting
CCC(=O)O[C@]1(C(=O)CCl)[C@@H](C)C[C@H]2[C@@H]3CCC4=CC(=O)C=C[C@]4(C)[C@@]3(F)[C@@H](O)C[C@@]21C [clobetasol propionate],good response,"[8]; topical 0.05%, 4 to 21 weeks",35%
same,no response,"[8]; topical 0.05%, 4 to 21 weeks",27%
same,partial response,"[8]; topical 0.05%, 4 to 21 weeks",38%
same,adverse effects,[8]; topical ultrapotent corticosteroid,"localised atrophy, hypopigmentation, hypertrichosis and infection"
"CC(C)NC[C@@H](O)COc1cccc2ccccc12 [R(+) Propranolol, R-propranolol]",individual isomers compared with the racemic mixture,[9]; alone,as effective alone as the racemic mixture
same,"attenuating hemangioma cell proliferation, propranolol vs timolol enantiomers",[9]; particularly at 1-5 μM,superior to R- and S-timolol
same,dose-response across all cell lines,[10],typical dose-response
same,Estimated Optimal Dosage Range,[4],1 to 10 µM
same,Inhibition vs. Cells + Adjuvant at 72 Hours,[4]; 1 μM,1 μM - No - 1.59%
same,Inhibition vs. Cells + Adjuvant at 72 Hours,[4]; 10 μM,10 μM - Response - 50.35%
same,Results Summary,[4],Responder
carboxyfluorescein,log P,[5],2.9
same,permeation of carboxyfluorescein through the skin-model membrane,[11],No permeation
CCOC(=O)[C@H](CCc1ccccc1)N[C@H]1CCc2ccccc2N(CC(=O)O)C1=O [Benazepril],IC50,[1],425 nM
same,pKa,[6],3.5
same,pKa,[6]; second value,5.4
same,Solubility,[7]; pH 7,1.76 mg/L (pH 7)
same,Half life: short or long acting,[2],Long acting
"CC(C)NCC(O)COc1cccc2ccccc12 (racemic) [(±) Propranolol, Propranolol]",Results Summary,[4],Responder
same,inhibition at 1 µM,[4]; 1 μM,< 0%
same,inhibition at 10 µM,[4]; 10 μM,47.5%
same,patients treated showing an improvement,"[12]; oral low dose, within 5 weeks",approximately 88%
same,patients successfully treated,"[12]; oral, overall",approximately 60%
same,clinical improvement versus captopril,[13],significantly better and faster
same,good response,[14],57-59%
same,good to modest response rates,[14],75-90%
same,modest response,[14],26-33%
same,no response,[14],10-15%
CCOC(=O)[C@H](CCc1ccccc1)N[C@@H](C)C(=O)N1[C@H](C(=O)O)C[C@@H]2CCC[C@@H]21 [Ramipril],inhibition of proliferating hemangioma cells,[4],good and similar level of inhibition
same,Results Summary,[4],Responder
same,inhibition at 1 µM,[4]; 1 μM,< 0%
same,inhibition at 10 µM,[4]; 10 μM,68.1%
same,Complete ACE inhibition lasting,[15]; after single 10 μM dose,inhibition lasting 15 days
same,IC50,[15]; vs brush border ACE,5 nM
same,pKa,[6],3.75
same,pKa,[6]; second value,5.2
same,Solubility,[7],0.0035 mg/mL
same,Half life,[2],2 to 4 h (Ramipril)
same,Half life: short or long acting,[2],Long acting

# From patent US20230090708A1, “METHODS AND COMPOSITIONS FOR THE TREATMENT OF HEMANGIOMA” (MASSEY VENTURES LIMITED, priority 2020, published 2023)
